Values quoted from earlier work as cited in patent US8216786B2, “Genetic polymorphisms associated with cardiovascular diseases, methods of detection and uses thereof” (Celera Corporation, priority 2008, dated 2012).

Test system: animal models and myocyte cultures
Conditions: compared to lipophilic statins; cited from earlier work

CC[C@H](C)C(=O)O[C@H]1C[C@H](O)C=C2C=C[C@H](C)[C@H](CC[C@@H](O)C[C@@H](O)CC(=O)O)[C@H]21 [pravastatin]
myopathic potential: low myopathic potential
